From PubChem BioAssay (NCI) come the findings set out here.

Molecules are shown by their SMILES.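 Each compound was tested at five concentrations against cells in 96-well plates for 48 hours. GI50: concentration for 50% inhibition of growth. At the TGI there is no net growth.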

Some test systems named below: 786-0 renal; HOP-92 NSCLC; LOX IMVI melanoma; NCI-H522 lung; OVCAR-4 ovarian; SN12C renal; TK-10 renal; IGROV1 ovarian.
What all share (assay): growth of human tumour cells (NCI), 48 h

In the case of `O=C(CCC(=O)Nc1cccc(Cl)c1)CC(=O)c1ccc(F)cc1`, the TGI with 786-0 renal, with HOP-92 NSCLC, in the assay on LOX IMVI melanoma, in the assay on NCI-H522 lung, in the assay on OVCAR-4 ovarian and in the assay on SN12C renal was > 100 µM throughout. Further, in the assay on TK-10 renal, the TGI was > 100 µM.
For the molecule `CC(C)[C@H]1CC[C@H]2[C@@H](CC[C@H]3[C@](C)(CN)CCC[C@]23C)C1`, the GI50 was 1.82 µM in the assay with 786-0 renal; 1.22 µM in the assay with HOP-92 NSCLC; 1.61 µM in the assay on LOX IMVI melanoma; 1.91 µM with NCI-H522 lung; 4.36 µM in the assay with OVCAR-4 ovarian; 1.75 µM in the assay on SN12C renal. In addition, the GI50 in the assay on TK-10 renal is 2.19 µM. Further, the TGI was 3.24 µM in the assay with 786-0 renal; 8.12 µM in the assay on HOP-92 NSCLC; 2.98 µM with LOX IMVI melanoma; 3.82 µM in the assay on NCI-H522 lung; 20.3 µM in the assay on OVCAR-4 ovarian; 3.65 µM in the assay with SN12C renal. Also, the TGI in the assay on TK-10 renal amounted to 7.9 µM.
Turning to `CC(C)Nc1ccc(Nc2ccccc2)cc1`, the GI50 in the assay with 786-0 renal was 17.8 µM; in the assay with HOP-92 NSCLC, 12 µM; in the assay with IGROV1 ovarian it was 14.2 µM; with LOX IMVI melanoma, 13.1 µM; in the assay with NCI-H522 lung, 13.7 µM; with SN12C renal, 27.1 µM. For the same molecule, the GI50 in the assay on TK-10 renal is 23.1 µM. Besides, the TGI in the assay with 786-0 renal was > 100 µM; in the assay with HOP-92 NSCLC it was 30 µM; with IGROV1 ovarian, 37.3 µM; in the assay with LOX IMVI melanoma, 29.1 µM; with NCI-H522 lung, 28.8 µM; in the assay with SN12C renal, > 100 µM. In addition, the TGI with TK-10 renal is 57.4 µM.
For the molecule `O=c1c2ccccc2c(Br)c(Br)c2ccccc12`, the GI50 in the assay with 786-0 renal is 14.7 µM; with IGROV1 ovarian, 2.37 µM; with LOX IMVI melanoma, 2.22 µM; in the assay on NCI-H522 lung, 1.76 µM; in the assay on OVCAR-4 ovarian, 9.24 µM; with SN12C renal, 15.8 µM. Further, the GI50 in the assay on TK-10 renal was 3.91 µM. Moreover, the TGI in the assay with 786-0 renal is 29.8 µM; in the assay on IGROV1 ovarian it was 5.37 µM; in the assay on LOX IMVI melanoma, 5.77 µM; with NCI-H522 lung, 3.47 µM; with OVCAR-4 ovarian, 80.9 µM; with SN12C renal, 32.8 µM. Also, the TGI in the assay on TK-10 renal amounted to 18 µM.
As to `N#C/C(=N\Nc1ccc(Cl)cc1)C(=O)Nc1cc(-c2ccccc2)nn1-c1ccccc1`, the GI50 is 4.05 µM in the assay with 786-0 renal; 1.07 µM with HOP-92 NSCLC; 4.12 µM in the assay on IGROV1 ovarian; 2.38 µM in the assay on NCI-H522 lung; 2.25 µM with OVCAR-4 ovarian; 2.44 µM in the assay with SN12C renal. Also, in the assay on TK-10 renal, the GI50 was 4.82 µM. Also, the TGI in the assay with 786-0 renal is > 100 µM; in the assay on HOP-92 NSCLC it was 4.49 µM; with IGROV1 ovarian, > 100 µM; with NCI-H522 lung, > 100 µM; in the assay with OVCAR-4 ovarian, 7.62 µM; in the assay on SN12C renal, > 100 µM. The TGI in the assay with TK-10 renal is > 100 µM.
Take `O=C(Nc1ccccc1)c1nn(-c2cc(S(=O)(=O)O)c([N+](=O)[O-])cc2Cl)[n+](-c2cc(S(=O)(=O)[O-])c([N+](=O)[O-])cc2Cl)n1`: the TGI in the assay with 786-0 renal, in the assay with IGROV1 ovarian, in the assay on LOX IMVI melanoma, with NCI-H522 lung, with OVCAR-4 ovarian and with SN12C renal was > 100 µM in each case. In addition, the TGI in the assay with TK-10 renal was > 100 µM.
On to `O=c1cc(-c2ccccc2)oc2cc(O)c(O)c(O)c12`, for which the GI50 was 9.87 µM in the assay on 786-0 renal; 3.58 µM in the assay with HOP-92 NSCLC; 28 µM in the assay with LOX IMVI melanoma; 13.3 µM with NCI-H522 lung; 47.1 µM in the assay with OVCAR-4 ovarian; 8.8 µM in the assay with SN12C renal. For the same molecule, the GI50 with TK-10 renal was 28 µM. In addition, the TGI in the assay on 786-0 renal was 27.3 µM; in the assay with HOP-92 NSCLC, 48.7 µM; with LOX IMVI melanoma, > 100 µM; in the assay on NCI-H522 lung, > 100 µM; with OVCAR-4 ovarian, > 100 µM; in the assay with SN12C renal, 26 µM. The TGI with TK-10 renal was determined as 81.2 µM.
Consider `CS(=O)(=O)OCC1OC(n2ccc(NC(=O)c3ccccc3)nc2=O)CC1OS(C)(=O)=O` (stereo not drawn), for which the TGI with 786-0 renal, in the assay with IGROV1 ovarian, with LOX IMVI melanoma, in the assay with NCI-H522 lung, in the assay with OVCAR-4 ovarian and with SN12C renal was > 100 µM each time. The TGI in the assay with TK-10 renal was > 100 µM.
Regarding `COc1cc2c3c(n(CCCN(CCN)CCCn4c5c(c6cc(OC)c(OC)cc6c4=O)C(=O)c4cc6c(cc4-5)OCO6)c(=O)c2cc1OC)-c1cc2c(cc1C3=O)OCO2`, the GI50 was 0.314 µM in the assay on 786-0 renal; 1.29 µM in the assay with HOP-92 NSCLC; 0.57 µM in the assay with LOX IMVI melanoma; 0.343 µM in the assay on NCI-H522 lung; 13.3 µM in the assay with OVCAR-4 ovarian; 0.141 µM in the assay on SN12C renal. Besides, the GI50 in the assay with TK-10 renal is 3.11 µM. The TGI in the assay with 786-0 renal was 1.51 µM; in the assay on HOP-92 NSCLC, 15 µM; in the assay with LOX IMVI melanoma, 6.32 µM; in the assay with NCI-H522 lung, 3.88 µM; with OVCAR-4 ovarian, > 83.8 µM; in the assay on SN12C renal, 0.755 µM. Besides, the TGI in the assay with TK-10 renal is > 24.8 µM.
For `O=C1C2C(C(=O)[N]1[Hg][c]1cccs1)C1(Cl)C(Cl)=C(Cl)C2(Cl)C1(Cl)Cl` (stereo not drawn), the GI50 with 786-0 renal was 0.67 µM; in the assay on HOP-92 NSCLC, 1.58 µM; in the assay on IGROV1 ovarian, 1.29 µM; in the assay on LOX IMVI melanoma it was 0.708 µM; in the assay with NCI-H522 lung, 0.162 µM; in the assay with OVCAR-4 ovarian, 1.24 µM. Also, the GI50 in the assay with TK-10 renal was 1.65 µM. In addition, the TGI with 786-0 renal was 1.81 µM; in the assay with HOP-92 NSCLC, 3.03 µM; with IGROV1 ovarian, 3.52 µM; with LOX IMVI melanoma it was 1.94 µM; in the assay with NCI-H522 lung, 0.432 µM; in the assay with OVCAR-4 ovarian, 2.51 µM. In the assay with TK-10 renal, this molecule yielded a TGI of 3.04 µM.
On to `CCOC(=O)c1sc2ncn(Cc3cccc(Br)c3)c(=O)c2c1C`, for which the GI50 in the assay on 786-0 renal was 33.9 µM; in the assay on HOP-92 NSCLC, 31.1 µM; with IGROV1 ovarian, 0.172 µM; in the assay with LOX IMVI melanoma it was 84.9 µM; with NCI-H522 lung it was 9.7 µM; in the assay on OVCAR-4 ovarian, 30.9 µM. Besides, the GI50 with SN12C renal was 11.7 µM. Besides, the TGI in the assay with 786-0 renal was > 100 µM; in the assay on HOP-92 NSCLC, > 100 µM; with IGROV1 ovarian, > 100 µM; in the assay on LOX IMVI melanoma it was > 100 µM; in the assay on NCI-H522 lung it was 65.8 µM; with OVCAR-4 ovarian, 81.3 µM. The same molecule came in with a TGI with SN12C renal of 47.3 µM.
